Test system: washed monkey platelets
Assay: sGPVI production mechanism using monkey washed platelets
Assay type: cell-based
Conditions: stimulating agent added to washed platelet suspension with calcium chloride, 37° C. for 1 hour; sGPVI in supernatant by ELISA; compared with control group without stimulating agent (FIG. 8)
Experimental: Human serum and human plasma were prepared by a 100-fold or more dilution with 0.1% BSA, 0.05% Tween 20, and 0.3 M NaCl/D-PBS and added to the F1232-7-1-immobilized plate to incubate at 28° C. for 2 hours. In addition, a recombinant human sGPVI-His that was expressed and purified by Free Style 293 Expression System (manufactured by Invitrogen) was used as the reference material. After the reaction incubation, the plate was washed with physiological saline containing 0.05% Tween 20. F1232-10-2 Fab′-HRP prepared in Example 1 as a secondary labeled antibody was diluted 100-fold with 2% rat serum and 0.05% Tween 20/D-PBS and added to the well to incubate at 28° C. for 1 hour. After washing the plate, tetramethylbenzidine (hereinafter described as TMB) that was returned to room temperature was added, and incubated for 10 minutes. After stopping the reaction by the addition of 0.5 M sulfuric acid, the absorbance at 450 nm was measured using a microplate reader SpectraMax (manufactured by Molecular Devices), and the absorbance at 650 nm was subtracted as a reference. The resulting absorbance was analyzed using a microplate data analysis software (SoftMax Pro 5.2, manufactured by Molecular Devices). In addition, the data was expressed in terms of mean±standard error (SE) in principle.
Whole blood was collected from the monkey's leg vein using sodium citrate as an anticoagulant. Platelet-rich plasma (hereinafter described as PRP) was prepared by centrifuging the obtained whole blood at 900 rpm×10 minutes, and only PRP fraction was separated gently by PIPETMAN to transfer it to a new tube. The PRP was centrifuged at 2000 rpm×10 minutes at room temperature to precipitate the platelets. […] The number of platelets was counted by Sysmex F-820 (To a Medical Electronics Co., Ltd.), and the platelet count was adjusted to 40.0×10^7/ml. […]
The production of sGPVI was examined by adding various stimulating agents such as collagen, sAβ, or fAβ, to monkey washed platelets. […] The concentration of sGPVI in the reaction mixture was measured by the ELISA method as described in Example 2.

In the case of collagen, the “production of sGPVI” value is reported as “production of sGPVI was observed”.
“fibril Aβ: Aβ1-42 incubated at room temperature for one week after the dilution in D-PBS, used as fibril amyloid β” was tested, and the “production of sGPVI” value was “production of sGPVI was observed”.
With “sAβ: Aβ1-42 (AnaSpec Inc) just after diluted in D-PBS, used as soluble amyloid β” the “production of sGPVI” value was “production of sGPVI was not observed”.

From US20130217050A1, “METHOD FOR DIAGNOSING ALZHEIMER'S DISEASE USING-SOLUBLE GPVI” (MOCHIDA PHARMACEUTICAL CO., LTD., priority 2010, published 2013)
